From US4959361A, “Triazolo(4,3-A)(1,4)benzodiazepines and thieno (3,2-F)(1,2,4)triazolo(4,3-A)(1,4)diazepine compounds which have useful activity as platelet activating factor (PAF) antagonists” (Hoffmann-La Roche Inc., priority 1988, dated 1990)
Like-named read-outs stand apart in the source and are kept apart here.

How the values were obtained:
[1] = target: T1, PAF-binding, dog platelets (Canis lupus familiaris, UniProt A0A8I3NSH0); test: PAF binding assay (radiolabelled H-PAF, washed dog platelets); conditions: 10 minutes at room temperature, read-out: PAF-binding IC-50
T1 construct: dog platelets; from tissue; host or cells: washed platelets from citrated dog blood
T1 sequence (A0A8I3NSH0 1-343): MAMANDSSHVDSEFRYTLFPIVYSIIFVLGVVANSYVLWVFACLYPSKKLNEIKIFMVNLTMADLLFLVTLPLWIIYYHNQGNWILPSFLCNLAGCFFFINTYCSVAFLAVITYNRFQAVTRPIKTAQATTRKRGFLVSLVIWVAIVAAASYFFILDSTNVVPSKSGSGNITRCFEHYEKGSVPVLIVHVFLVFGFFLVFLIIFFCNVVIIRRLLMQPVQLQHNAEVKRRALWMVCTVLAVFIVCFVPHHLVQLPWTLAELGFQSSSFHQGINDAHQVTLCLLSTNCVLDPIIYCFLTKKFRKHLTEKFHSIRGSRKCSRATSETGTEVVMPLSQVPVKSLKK
Experimental: The binding assay was done in […] polyethylene microcentrifuge tubes (Beckman) containing 50 μl of an oil mixture of 2 parts Siliconol AR200 (Serva): 1 part Silicone Fluid (Arthur H. Thoma). Buffer, standards, or analogs (150 μl total volume) were added to the tubes. Radiolabelled H-PAF (50 μl) was then added to the tubes. The reaction was started by the addition of 50 μl of dog platelets (2×10^7 platelets). The tubes were capped, inverted several times to mix, and incubated for 10 minutes at room temperature. The platelets were separated from the incubation mixture by centrifuging 1 minute in a Beckman Microfuge B centrifuge. The tip of the microfuge tube was cut off, and the platelets were washed out of the tip with 200 μl of 50% methanol (Burdick and Jackson). Aquasol (NEN, 10 ml) was added and the radioactivity in the samples was determined using an LS 8100 Beckman liquid scintillation counter linked to a Techtran tape recorder Data was processed through an in-house computer system. Alternatively, radioactivity was determined using a Searle Mark III liquid scintillation counter linked to a Iso-Data microprocessor.
(b) preparation of platelets
Blood was collected from anesthesized or unanesthesized dogs into 50 ml plastic centrifuge tubes containing 3.8% sodium citrate as the anticoagulant (1 volume of citrate/9 volumes of blood). The red cells were removed by centrifugation for 15 minutes at 600 rpm (100-125 g) at room temperature. An aliquot of the supernatant platelet rich plasma (PRP) was saved for cell counting and the remainder was acidified to pH 6.5 with 0.15M citric acid. The platelet pellet was obtained after a 10 minute centrifugation at 2000 rpm (1000 g) at room temperature. Washed platelets were prepared by resuspending the platelet pellet once with pBS containing 1 mM EDTA, centrifuging as noted, and then resuspending the platelets in 0.1% BSA pBS. An aliquot of the washed platelets was counted. Platelets used for binding assays were diluted to 2×10^7 platelets/assay tube (4×10^8 platelets/ml). platelet countinq was done using a Royco Cell-Crit 921.

[2] = tested on: PAF Induced Bronchoconstriction; test: PAF induced bronchoconstriction assay, intravenous testing; assay type: in vivo, guinea pig; conditions: for ED50: Cavia porcellus, iv, 1 min, i.v., 1 minute pretreatment, PAF 1 μg/kg i.v., read-out: Bronchoconstriction ID-50 i.v.; for % inhibition of bronchoconstriction: Table II (*), at 0. mg/kg i.v. (dose digit cut off)
Experimental: Male animals (Hartlet Strain, 400-500 g were anesthetized with urethane (2 g/kg, i.p.). Each animals' trachea was cannulated and the guinea pigs were respirated using a Harvard small animal rodent respirator (3.0 cc stroke volume, 40 breaths per min.). Tracheal pressure was recorded from a cannula inserted in the trachea and connected to a Statham pressure transducer.
The jugular vein was cannulated for administering compounds. Spontaneous breathing was arrested with succinylcholine (1.2 mg/kg, i.v.) administered 2 minutes prior to intravenous injection of platelet activating factor PAF).
For the intravenous testing, the guinea pig is given a 1-minute pretreatment with propranolol at a dose of 0.1 mg/kg intravenously. The test compound is administered with a 1 minute pretreatment prior to intravenous challenge with PAF. The animal is then challenged with a 1 μg/kg intravenous dose of PAF and the change in tracheal pressure is measured.
The change in tracheal pressure is determined by subtracting the steady state baseline achieved after administration of succinylcholine from the peak broncho. constriction seen after challenge with PAF. The mean is calculated for each test compound and compared to the mean of the control animals to give the percent inhibition of bronchoconstriction. The standard error is calculated as the standard error of the mean.

[3] = tested on: PAF Induced Bronchoconstriction; test: PAF induced bronchoconstriction assay, oral testing; assay type: in vivo, guinea pig; conditions: Cavia porcellus, po, 2 hr; for ED50: p.o., read-out: Bronchoconstriction ID-50 p.o. 2 hr; for inhibition in vivo at 0.3 mg/kg: at a dose of 0.3 mg/kg p.o.; for inhibition in vivo at 3 mg/kg: Table II (*), 3 mg/kg p.o.
[4] = Table I, triazolothienodiazepines
[5] = Table II, triazolobenzodiazepines

Cc1nnc2n1-c1sc(C#CCn3c(=O)ccc4ccccc43)cc1C(c1ccccc1Cl)=NC2
IC50 [1, 4]: 0.002 µM | ED50 ([2]; Table I): 0.006 mg/kg | ED50 ([3]; Table I): 0.016 mg/kg

Cc1nnc2n1-c1sc(C#CCN3C(=O)CCc4ccccc43)cc1C(c1ccccc1Cl)=NC2
IC50 [1, 4]: 0.0002 µM | ED50 ([2]; Table I): 0.004 mg/kg | ED50 ([3]; Table I): 0.015 mg/kg

Cc1nnc2n1-c1sc(C#CCN3Cc4cccc5cccc(c45)C3=O)cc1C(c1ccccc1Cl)=NC2
IC50 [1, 4]: 0.0035 µM | ED50 ([2]; Table I): 0.01 mg/kg | ED50 ([3]; Table I): 0.009 mg/kg

Cc1nnc2n1-c1sc(C#CCn3c(=O)n(C)c4ccccc43)cc1C(c1ccccc1Cl)=NC2
IC50 [1, 4]: 0.0003 µM | ED50 ([2]; Table I): 0.004 mg/kg | ED50 ([3]; Table I): 0.043 mg/kg

Cc1nnc2n1-c1sc(C#CCC34CCCc5cccc(c53)NC4=O)cc1C(c1ccccc1Cl)=NC2 (stereo not drawn)
IC50 [1, 4]: 0.0007 µM | ED50 ([2]; Table I): 0.008 mg/kg | inhibition in vivo at 0.3 mg/kg ([3]; Table I): 24%

Cc1nnc2n1-c1sc(C#CCN3C(=O)C4(C)CCCc5cccc3c54)cc1C(c1ccccc1Cl)=NC2 (stereo not drawn)
IC50 [1, 4]: 0.012 µM | ED50 ([2]; Table I): 0.013 mg/kg | ED50 ([3]; Table I): 0.03 mg/kg

Cc1nnc2n1-c1sc(C#CCn3c4ccccc4c4ccccc43)cc1C(c1ccccc1Cl)=NC2
IC50 [1, 4]: 0.12 µM | ED50 ([2]; Table I): 0.016 mg/kg | ED50 ([3]; Table I): 0.016 mg/kg

Cc1nnc2n1-c1sc(C#CCn3c(=O)c4ccccc4c4ccccc4c3=O)cc1C(c1ccccc1Cl)=NC2
IC50 [1, 4]: 0.051 µM | ED50 ([2]; Table I): 0.01 mg/kg | ED50 ([3]; Table I): 0.015 mg/kg

Cc1nnc2n1-c1sc(C#CCn3c(=O)c4ccccc4c4ccccc43)cc1C(c1ccccc1Cl)=NC2
IC50 [1, 4]: 0.013 µM | ED50 ([2]; Table I): 0.016 mg/kg | ED50 ([3]; Table I): 0.012 mg/kg

Cc1nnc2n1-c1sc(C#CCn3c(=O)n(C)c(=O)c4ccccc43)cc1C(c1ccccc1Cl)=NC2
IC50 [1, 4]: 0.0006 µM | ED50 ([2]; Table I): 0.007 mg/kg | ED50 ([3]; Table I): 0.017 mg/kg

Cc1nnc2n1-c1sc(C#CCN3C(=O)COc4ccc(Cl)cc43)cc1C(c1ccccc1Cl)=NC2
IC50 [1, 4]: < 0.001 µM | ED50 ([2]; Table I): 0.004 mg/kg | ED50 ([3]; Table I): 0.049 mg/kg

Cc1nnc2n1-c1sc(C#CCn3c(=O)n(-c4ccccc4)c4ccccc43)cc1C(c1ccccc1Cl)=NC2
IC50 [1, 4]: < 0.001 µM | ED50 ([2]; Table I): 0.008 mg/kg | ED50 ([3]; Table I): 0.015 mg/kg

Cc1nnc2n1-c1sc(C#Cc3ccccn3)cc1C(c1ccccc1Cl)=NC2
IC50 [1, 4]: 0.25 µM | ED50 ([2]; Table I): 0.056 mg/kg | inhibition in vivo at 0.3 mg/kg ([3]; Table I): 5%

Cc1nnc2n1-c1sc(C#CCn3ccc4ccccc4c3=O)cc1C(c1ccccc1Cl)=NC2
IC50 [1, 4]: 0.001 µM | ED50 ([2]; Table I): 0.007 mg/kg | ED50 ([3]; Table I): 0.029 mg/kg

Cc1nnc2n1-c1sc(C#CCN3C(=O)CCc4cc(Cl)cc(Cl)c43)cc1C(c1ccccc1Cl)=NC2
IC50 [1, 4]: < 0.001 µM | ED50 ([2]; Table I): 0.006 mg/kg | ED50 ([3]; Table I): 0.021 mg/kg

Cc1nnc2n1-c1sc(C#CCn3c4c(c5ccccc53)CCCC4)cc1C(c1ccccc1Cl)=NC2
IC50 [1, 4]: 0.007 µM | ED50 ([2]; Table I): 0.005 mg/kg | ED50 ([3]; Table I): 0.006 mg/kg

Cc1nnc2n1-c1ccc(C#CCN3C(=O)c4ccccc4C3=O)cc1C(c1ccccc1Cl)=NC2
IC50 [1, 5]: 0.02 µM | ED50 ([2]; Table II): 0.019 mg/kg | ED50 ([3]; Table II): 1.4 mg/kg

Cc1nnc2n1-c1ccc(C#CCN3C(=O)c4ccccc4C3=O)cc1C(c1ccccc1F)=NC2
IC50 [1, 5]: 0.01 µM | ED50 ([2]; Table II): 0.013 mg/kg | ED50 ([3]; Table II): 0.52 mg/kg

COC1c2ccccc2C(=O)N1CC#Cc1ccc2c(c1)C(c1ccccc1F)=NCc1nnc(C)n1-2 (stereo not drawn)
IC50 [1, 5]: 0.1 µM | % inhibition of bronchoconstriction [2]: 99% | inhibition in vivo at 3 mg/kg [3]: 100%

Cc1nnc2n1-c1ccc(C#CCN3C(=O)c4cccc5cccc3c45)cc1C(c1ccccc1F)=NC2
IC50 [1, 5]: 0.02 µM | % inhibition of bronchoconstriction [2]: 99% | inhibition in vivo at 3 mg/kg [3]: 57%

Cc1nnc2n1-c1ccc(C#CCCc3ccccc3)cc1C(c1ccccc1F)=NC2
IC50 [1, 5]: < 0.001 µM | ED50 ([2]; Table II): 0.006 mg/kg | ED50 ([3]; Table II): > 0.3 mg/kg

Cc1nnc2n1-c1ccc(C#CCN3C(=O)CCc4ccccc43)cc1C(c1ccccc1F)=NC2
IC50 [1, 5]: 0.02 µM | ED50 ([2]; Table II): 0.015 mg/kg | ED50 ([3]; Table II): 0.44 mg/kg

CCc1nnc2n1-c1ccc(C#CCN3C(=O)c4ccccc4C3=O)cc1C(c1ccccc1F)=NC2 [2-[3-[1-Ethyl-6-(2-fluorophenyl)-4H-[1,2,4]triazolo[4,3-a][1, 4]benzodiazepin-8-yl]-2-propynyl]-1H-isoindole-1,3(2H)dione semihydrate]
IC50 [1, 5]: 0.1 µM | ED50 ([2]; Table II): 0.054 mg/kg | ED50 ([3]; Table II): 1.5 mg/kg
